Experimental data from patent publication US20140357512A1, “HISTONE DEACETYLASE (HDAC) BIOMARKERS IN MULTIPLE MYELOMA” (priority 2013, published 2014).

Test system: human myeloma cell line MM.1S
Assay: SILAC acetylated-lysine peptide profiling, HDAC inhibitor vs DMSO (light/heavy ratio)
Assay type: cell-based
Source text: An embodiment of the invention comprises utilizing the SILAC method in order to quantitate changes in protein expression between two or more populations of cells. The SILAC method is a technique based on mass spectrometry that detects differences in protein abundance among samples using non-radioactive isotopic labeling. The SILAC method is known in the art, and described in detail in Ong et al., “Stable Isotope Labeling by Amino Acids in Cell Culture, SILAC, as a Simple and Accurate Approach to Expression Proteomics”, Molecular & Cellular Proteomics, vol. 1, pp. 376-386 (2002), which is incorporated herein by reference in its entirety.
Briefly, the SILAC method involves growing two populations of cells in cell culture. The first population of cells is grown in growth media containing normal amino acids (“normal media”). The second population of cells is grown in media lacking a standard essential amino acid (such as lysine), but is then supplemented with a non-radioactive, isotopically labeled form of that essential amino acid (such as lysine labeled with ^13C atoms, rather than normal ^12C atoms), which is called “heavy media”. When the two populations of cells are each growing in the medium, they incorporate the amino acids into all of their proteins. The growth of cells maintained in the heavy media is no different from that in normal media. All peptides containing the heavy amino acids are heavier than their normal counterparts. The cells from each of the two populations of cells are lysed. The lysates from each of the two cell populations are then combined. The combined cell lysates are then analyzed by mass spectrometry. Pairs of chemically identical peptides of different stable isotope composition can be differentiated in a mass spectrometer due to their difference in mass. The ratio of peak intensities in the mass spectrum for such peptide pairs reflects the abundance ratio for the two proteins.
This example describes SILAC studies that were performed to compare the effects of three different HDAC inhibitors (Compound A, Compound B, and tubastatin A) to a control on a human multiple myeloma cell line. The HDAC inhibitors were also compared amongst themselves to determine differences in their effects.
A human myeloma cell line MM.1S was grown using either ^12C (light) or ^13C (heavy) lysine containing culture medium. The “heavy” cells were treated with DMSO as the control, and the “light” cells were treated with a single HDAC inhibitor at 37° C. for 6 hours. The heavy and light cells were lysed, and the lysates were mixed in 1:1 ratio and digested with the protease trypsin. The acetylated lysine containing peptides (due to the action of the HDAC inhibitor) in the digested peptide pool were captured by a non-specific anti-acetylated lysine antibody cocktail (the antibodies identify both light and heavy acetylated peptides), and subjected to mass spectrometry analysis in order to identify thousands of individual peptides.
Thousands of peptides were identified in pairs (^12C and ^13C) due to their known mass differences. The amino acid sequence and quantitative ratio (Light/Heavy) of a given peptide in two differentially treated cell lysates were then determined and annotated with their possible protein (gene) sources.
As stated above, three HDAC inhibitors (Compound A, Compound B, and Tubastatin A) were used. Thus, the SILAC method was performed three times, with a different HDAC inhibitor compared to a control each time. Accordingly, there are three pairs of quantitative data in the table below, i.e., Compound A:DMSO, Compound B:DMSO, and Tubastatin A:DMSO. A cut-off of 1.30 fold of change (increase or decrease) was then used to determine “changed” or “+” in the table, and any peptides with a fold of change less than 1.3 fold were determined to be “unchanged” or “0” in the table. Those peptides that were not identified were marked as “NA” in the table. […]

## O=C(CCCCCCNC(=O)c1cnc(N(c2ccccc2)c2ccccc2)nc1)NO [Compound A, 2-(diphenylamino)-N-(7-(hydroxyamino)-7-oxoheptyl)pyrimidine-5-carboxamide]
Isoform 1 of Heterogeneous nuclear ribonucleoprotein H3 [76], gene HNRNPH3, inhibitor:DMSO
  light to heavy ratio (L/H ratio) of acetylated peptide EIAENALGK(ac)HK (SEQ ID NO: 617): 0.47 log 2
Isoform 1 of Histone-lysine N-methyltransferase MLL3 [758], gene MLL3, inhibitor:DMSO
  light to heavy ratio (L/H ratio) of acetylated peptide DVSYQGGK(ac)SIK (SEQ ID NO: 571): 0.42 log 2
Isoform 1 of Histone-lysine N-methyltransferase MLL3 [2809], gene MLL3, inhibitor:DMSO
  light to heavy ratio (L/H ratio) of acetylated peptide TLVLSDK(ac)HSPQK (SEQ ID NO: 523): −0.46 log 2
Isoform 1 of Hydroxyacyl-coenzyme A dehydrogenase mitochondrial [127], gene HADH, inhibitor:DMSO
  light to heavy ratio (L/H ratio) of acetylated peptide VK(ac)NELFK (SEQ ID NO: 565): 0.41 log 2
Isoform 1 of Hydroxyacyl-coenzyme A dehydrogenase mitochondrial [301], HADH, drug:DMSO
  light to heavy ratio (L/H ratio) of acetylated peptide LVAENK(ac)FGK (SEQ ID NO: 296): 0.74 log 2
Isoform 1 of L-lactate dehydrogenase A chain [318], LDHA, drug:DMSO
  light to heavy ratio (L/H ratio) of acetylated peptide K(ac)[…] (SEQ ID NO: 316): 1.00 log 2
Isoform 1 of Myosin-9 [435], MYH9, drug:DMSO
  light to heavy ratio (L/H ratio) of acetylated peptide INK(ac)ALDK (SEQ ID NO: 344): 0.00 log 2
Isoform 1 of Myosin-9 [439], gene MYH9, drug:DMSO
  light to heavy ratio (L/H ratio), log 2 scale, acetylated peptide INKALDK(ac)TK (SEQ ID NO: 802): 1.00
Isoform 1 of N-alpha-acetyltransferase 50 NatE catalytic subunit [37], gene NAA50, inhibitor:DMSO
  light to heavy ratio (L/H ratio) of acetylated peptide FYK(ac)[…] (SEQ ID NO: 596): 0.45 log 2
Isoform 1 of NADH-cytochrome b5 reductase 3 [115], gene CYB5R3, drug:DMSO
  light to heavy ratio (L/H ratio), log 2 scale, acetylated peptide VYFK(ac)DTHPK (SEQ ID NO: 758): 0.90
Isoform 1 of Peripherin [288], gene PRPH, drug:DMSO
  light to heavy ratio (L/H ratio), log 2 scale, acetylated peptide […](ac)SK (SEQ ID NO: 767): 0.94
Isoform 1 of Phosphatidylinositol-345-trisphosphate 5-phosphatase 1 [371], gene INPP5D, LOC646743, inhibitor:DMSO
  light to heavy ratio (L/H ratio) of acetylated peptide K(ac)EYVFADSK (SEQ ID NO: 616): 0.47 log 2
Isoform 1 of Polypyrimidine tract-binding protein 1 [368], gene PTBP1, inhibitor:DMSO
  light to heavy ratio (L/H ratio) of acetylated peptide VK(ac)ILFNK (SEQ ID NO: 561): 0.40 log 2
Isoform 1 of Protein FAM98A [297], gene FAM98A, inhibitor:DMSO
  light to heavy ratio (L/H ratio) of acetylated peptide TACAINK(ac)VLMGR (SEQ ID NO: 584): 0.43 log 2
Isoform 1 of Protein MB21D1 [414], gene MB21D1, inhibitor:DMSO
  light to heavy ratio (L/H ratio) of acetylated peptide LMK(ac)YLLEQLK (SEQ ID NO: 585): 0.43 log 2
Isoform 1 of Protein SET [154], SET, drug:DMSO
  light to heavy ratio (L/H ratio) of acetylated peptide VLSK(ac)[…] (SEQ ID NO: 294): 0.69 log 2
Isoform 1 of RNA-binding protein with serine-rich domain 1 [218], RNPS1, drug:DMSO
  light to heavy ratio (L/H ratio) of acetylated peptide […](ac)ALK (SEQ ID NO: 349): 0.00 log 2
Isoform 1 of Signal recognition particle 9 kDa protein [52], gene SRP9, drug:DMSO
  light to heavy ratio (L/H ratio), log 2 scale, acetylated peptide […](ac)TDQAQDVK (SEQ ID NO: 765): 0.93
Isoform 1 of Signal transducer and activator of transcription 2 [158:161], gene STAT2, drug:DMSO
  light to heavy ratio (L/H ratio), log 2 scale, acetylated peptide AMMEK(ac)LVK(ac)SISQLK (SEQ ID NO: 814): 1.00
Isoform 1 of U5 small nuclear ribonucleoprotein 200 kDa helicase [745], gene SNRNP200, inhibitor:DMSO
  light to heavy ratio (L/H ratio) of acetylated peptide DMCLEK(ac)DTLGLFLR (SEQ ID NO: 530): −0.41 log 2
Isoform 1 of UDP-N-acetylglucosamine--dolichyl-phosphate N-acetylglucosaminephosphotransferase [320], DPAGT1, drug:DMSO
  light to heavy ratio (L/H ratio) of acetylated peptide LEMSYSK(ac)FK (SEQ ID NO: 304): 1.00 log 2
Isoform 1 of UDP-glucose:glycoprotein glucosyltransferase 1 [176], gene UGGT1, inhibitor:DMSO
  light to heavy ratio (L/H ratio) of acetylated peptide PK(ac)PLLFK (SEQ ID NO: 544): 0.39 log 2
Isoform 2 of Double-stranded RNA-specific adenosine deaminase [1013], ADAR, drug:DMSO
  light to heavy ratio (L/H ratio) of acetylated peptide TMSCSDK(ac)ILR (SEQ ID NO: 323): 0.00 log 2
Isoform 2 of Fibronectin type-III domain-containing protein 3A [507], FNDC3A, drug:DMSO
  light to heavy ratio (L/H ratio) of acetylated peptide […](ac)[…] (SEQ ID NO: 336): 0.00 log 2
Isoform 2 of Heat shock protein HSP 90-alpha [565], gene HSP90AA1, drug:DMSO
  light to heavy ratio (L/H ratio), log 2 scale, acetylated peptide FYEQFSK(ac)NIK (SEQ ID NO: 799): 1.00
Isoform 2 of Inhibitor of growth protein 4 [145:147], gene ING4, inhibitor:DMSO
  light to heavy ratio (L/H ratio) of acetylated peptide SK(ac)GK(ac)NSDEEAPK (SEQ ID NO: 615): 0.47 log 2
Isoform 2 of Myosin-VI [646], gene MYO6, inhibitor:DMSO
  light to heavy ratio (L/H ratio) of acetylated peptide LSFISVGNK(ac)FK (SEQ ID NO: 521): −0.49 log 2
Isoform 2 of Neutral alpha-glucosidase AB [242], gene GANAB, inhibitor:DMSO
  light to heavy ratio (L/H ratio) of acetylated peptide AEK(ac)[…] (SEQ ID NO: 503): −0.71 log 2
Isoform 2 of Nipped-B-like protein [1000], gene NIPBL, inhibitor:DMSO
  light to heavy ratio (L/H ratio) of acetylated peptide GAK(ac)PVVVLQK (SEQ ID NO: 611): 0.47 log 2
Isoform 2 of Nuclear factor related to kappa-B-binding protein [1262], gene NFRKB, inhibitor:DMSO
  light to heavy ratio (L/H ratio) of acetylated peptide LIAGNK(ac)[…] (SEQ ID NO: 512): −0.58 log 2
Isoform 2 of Septin-7 [207], gene, inhibitor:DMSO
  light to heavy ratio (L/H ratio) of acetylated peptide […](ac)K (SEQ ID NO: 626): 0.49 log 2
Isoform 2 of Spliceosome RNA helicase DDX39B [349], SNORD84, DDX39B, drug:DMSO
  light to heavy ratio (L/H ratio) of acetylated peptide YQQFK(ac)DFQR (SEQ ID NO: 258): 0.39 log 2
Isoform 2 of Transportin-3 [513], gene TNPO3, inhibitor:DMSO
  light to heavy ratio (L/H ratio) of acetylated peptide GLCEK(ac)PLASAAAK (SEQ ID NO: 536): −0.39 log 2
Isoform 3 of Proline-rich protein 12 [1223], gene PRR12, drug:DMSO
  light to heavy ratio (L/H ratio), log 2 scale, acetylated peptide LEPLK(ac)PLK (SEQ ID NO: 772): 1.00
Isoform 3 of Reticulon-3 [217], gene RTN3, drug:DMSO
  light to heavy ratio (L/H ratio), log 2 scale, acetylated peptide DQTK(ac)SIVEK (SEQ ID NO: 810): 1.00
Isoform 5 of Interleukin enhancer-binding factor 3 [332], gene ILF3, inhibitor:DMSO
  light to heavy ratio (L/H ratio) of acetylated peptide LAAFGQLHK(ac)[…] (SEQ ID NO: 570): 0.41 log 2
